Experimental data as given in patent publication US8198322B2, “Apoptotic and anti-tumor activities of metallo-salens” (Board of Regents, The University of Texas System, priority 2008, dated 2012).

What was measured:
MCF-7 cells [1] = experiment: Cell viability assay (MTT, DIC microscopy) at 20 μM; format: cell-based, human; parameters: key to Summary of cell viability activities (active/inactive): Y and N indicates active and inactive compounds respectively; Y and N indicates active and inactive compounds respectively; settings: for Summary of cell viability activities (active/inactive): MCF-7 cells, 20 μM, 24-96 hrs, MTT
Description: (A-F): MCF-7 cells were treated with 20 μM metallo-salens and incubated for varying time periods (24-96 hrs). Viable cells were quantified using MTT assay. The percent viable cells (relative to control, treated with equivalent amount of DMSO) were plotted as a function of time for each compound. This experiment was repeated twice with 8 replicate treatments each time. Bars indicates standard errors of mean (SEM). Curves 1-42 in FIGS. 2A-2F, represent the viability curves for compounds 1-42 respectively. (A′-F′) DIC images of the corresponding MCF-7 cells that were treated with DMSO (control panel), or with 20 μM Mn(III)- and Fe(III)-salen complexes for 72 hrs showing the visual effects on cellular morphology and growth/death.
Cell viability assay: Approximately 10,000 MCF-7 cells were seeded into each well of a 96 well micro titer plate and incubated 24 hrs in presence of 150 μL DMEM. An additional 50 μL DMEM containing required amount of each metallo-salen to obtain 20 μM final concentrations (in 200 μL final volume) in 8 replicate wells were added. Control wells were treated with equivalent amount of dimethylsulfoxide (DMSO). The viability of the cells was assayed at 24, 48, 72 and 96 hrs post treatment by using both microscopic observation and MTT assay. For microscopic observation cells were stained with trypan blue for at least 10 minute and observed under Differential Interference Contrast (DIC) setting of a fluorescence microscope (Nikon Eclipse TE2000-U, Japan). The MTT assay was performed as described previously^42. In brief, 20 μL MTT (5 mg/ml in PBS) was added into each wells and incubated for 2 hrs under normal growth condition to allow the viable cell to convert MTT to formazan. Then the media was discarded and formazan crystals were dissolved by adding 100 μL of DMSO and incubating 2 hrs with continuous shaking. The absorbance of the lysates were directly measured at 560 nm using a micro plate reader (Fluostar-omega, BMG Labtech). The absorbance values (which are proportional to the viable cell) are plotted as a function of time. The studies were repeated twice with 8 replicates each time.
The inventors studied the effect of Mn(III)-salen and Fe(III)-salen derivatives on the cell viability of cultured breast cancer cells MCF-7 in order to investigate the biochemical effects of the derivatives. The cells were incubated alone or with 20 μM of each of the metallo-salen derivatives separately (compounds 1-45) for varying time periods (0-96 hrs). The viable cells were quantified using MTT assay and the percent of cell survived (relative to the control untreated cells) were plotted against time (FIGS. 2A-2F).

MCF-7 cells [2] = experiment: Cytotoxicity assay (IC50 measurement, MTT); format: cell-based, human; settings: MCF-7, 96 hrs, read-out: IC50 values for different complexes in MCF-7 cells
Description: Cytotoxicity assay (IC50 measurement): The cytotoxicity of Fe(III)-salen and its derivatives was determined by using MTT assay as described previously^42. In brief, approximately 10,000 MCF-7 cells were seeded into each well of a 96 well micro titer plate and incubated 24 hrs in presence of 150 μL DMEM. An additional 50 μL DMEM containing required amount of each metallo-salen to obtain 0.05 to 60 μM final concentration (in 200 μL final volume) in 8 replicate wells were added. Control wells were treated with equivalent amount of DMSO. After 96 hrs of incubation, 20 μL of MTT (5 mg/mL) was added into each well and cell viability was assayed by measuring the formazan absorption at 560 nm as described above. The absorbance (at 560 nm) values were plotted against concentration of metallo-salens to determine the IC50. The studies were repeated twice with 8 replicates each time.
The concentration of the metal-complexes at which the conversion of MTT to formazan by viable cells is reduced by 50% compared to control cells is defined as the IC50. The percent of cell survival relative to the control cells were plotted as a function of concentration of the metallo-salen derivatives.

Animal toxicity = format: in vivo; settings: C57B mice, intraperitoneal, 5, 10 and 20 mg/kg, twice a week for 4 weeks
Description: The inventors intraperitoneally administered the Mn(III)-salen complexes (in PBS) at three different dozes (5, 10 and 20 mg/kg of mice, 6 weeks old normal C57B mice). The mice were treated twice a week for 4 weeks. After treatment, sign of toxicity were monitored (such as weight loss, mobility), animal behavior and health on a daily basis.

[3] = system: colon cancer xenograft (CCL228 cells); experiment: Colon cancer xenograft experiment; format: in vivo; settings: Athymic nude nu/nu mice, intraperitoneal, 10 mg/kg, twice a week
Description: Athymic nude nu/nu mice carrying the colon cancer xenograft were administered with 10 mg/kg of 3,3′-dimethoxy Mn(III)-salen (compound 6), 3,3′-dihydroxy Mn(III)-salphen (compound 9) and 3,3′-dihydroxy Mn(III)-salnaphen (compound 16) at 4 days interval, for over a period of 21 days. Tumor diameters were measured using a slide caliper prior to each administration and plotted (left panel). Bar indicated standard deviation (3 replicate experiments).
All the animal experiments were carried out using the IACUC approved protocol. For examining the efficacies of metallo-salen complexes, the inventors administered selected metallo-salen complexes in PBS intraperitoneally on Athymic nude nu/nu mice (Harlan) carrying the colon cancer xenografts. In brief, 2×10^6 human colon cancer cells (CCL228 cell in 100 μl of PBS) were injected subcutaneously (near the right back limb). Animals were examined daily for signs of tumor growth and behavior. Once the tumor size reached ˜25 mm^2 (2 to 3 weeks after injection of cells) the inventors administered the metallo-salen complexes intraperitoneally (in PBS solution, twice in a week, in three parallel replicates). Control mice were injected with equal volume of the diluents (PBS) alone. Prior to every new treatment with metallo-salen complexes, bi-dimensional measurements were carried out using calipers and cross-sectional area (tumor size) and data were plotted (FIG. 8A).
Xenograft experiment: To test the efficacy in controlling the tumor growth, the inventors administered compound compounds, 6, 9 and 16, intraperitoneally to six week old Athymic nude nu/nu mice carrying the colon cancer xenograft. In brief, 2×10^6 human colon cancer cells (CCL228 cell in 100 μl of PBS) were injected subcutaneously (near the right back limb). Animals were examined daily for signs of tumor growth and behavior. Once the tumor size reached ˜25 mm^2 (2 to 3 weeks after injection of cells) the inventors administered compounds 6, 9, and 16 intraperitoneally (separately in PBS solution, twice a week, 10 mg/kg dose). Every study was performed in three parallel replicates. […]

[4] = system: MCF-7 and CCL228 cancer cells over MCF-10 normal breast epithelial cells; experiment: IC50 comparison of cancer versus normal cell lines (MTT, FIG. 4); format: cell-based, human; settings: ratio of IC50 values
Description: IC50 values for each biochemically compounds were determined using MTT assay in three different cell lines that include MCF-7 (breast cancer), CCL228 (colon cancer) and MCF-10 (normal breast epithelial cells). IC50 values were for comparison for each compound (compounds 1-45) as marked.
To study the anti-tumor drug potential of Mn(III)- and Fe(III)-metallo salen derivatives, the inventors analyzed IC50 values for the each of the active compounds towards different cancer as well as normal cells. The IC50 values for different active compounds (compounds 1-42) for three different cell lines, MCF-7 (breast cancer), CCL228 (colon cancer) and MCF-10 (non malignant breast cells), are plotted in the bar graph in FIG. 4.

CC(=O)[O-].[Mn+3].[O-]c1c(O)cccc1C=Nc1cc2ccccc2cc1N=Cc1cccc(O)c1[O-] [compound 16, 3,3′-Dihydroxysalnaphen Mn(III) acetate]
Summary of cell viability activities (active/inactive) (MCF-7 cells [1]): Y (16) | IC50 (MCF-7 cells [2]): 40.3 µM | animal toxicity (Animal toxicity): did not have any significant animal toxicity | survival and body weight (Animal toxicity): survived without significant loss of body weight | tumor growth in colon cancer xenograft [3]: tumor size were grown exponentially

COc1ccc(C=NCCN=Cc2ccc(OC)cc2[O-])c([O-])c1.[Cl-].[Fe+3] [compound 27, 4,4′-Dimethoxysalen Fe(III) chloride]
time to induce similar extent (more than 80%) of cell death (MCF-7 cells [1]; MCF-7, 20 μM): about 72 hrs | effect on cell viability (in words) (MCF-7 cells [1]; MCF-7, 20 μM, up to 96 hrs): highly effective in killing MCF-7 cells | Summary of cell viability activities (active/inactive) (MCF-7 cells [1]): Y (27) | IC50 (MCF-7 cells [2]): 12.4 µM | selectivity in killing cancer cells (MCF-7 and CCL228) over normal cells (MCF-10) [4]: about 4 fold
